According to ChEMBL document CHEMBL4673334, “In Vivo Biological Evaluation of a Synthetic Royleanone Derivative as a Promising Fast-Acting Trypanocidal Agent by Inducing Mitochondrial-Dependent Necrosis” (J Nat Prod, 2020):
Calls of active or inactive are those of the source. No cut-off for these calls is given here.

How the values were obtained:
Trypanosoma cruzi [1] = assay: Antitrypanosomal activity against Trypanosoma cruzi MHOM/Pe/2011/Arequipa(DTU V) amastigote form infected in BALB/c mouse assessed as reactivation parasitaemia at 20 mg/kg, po administered for 5 days starting at 9 days post infection and measured up to 145 days post infection relative to control; format: functional
Trypanosoma cruzi [2] = assay: Antitrypanosomal activity against Trypanosoma cruzi MHOM/Pe/2011/Arequipa(DTU V) epimastigote form assessed as disruption of succinic acid level at IC25 concentration incubated for 72 hrs by NMR spectrometric analysis; format: functional, organism-based
[3] = Selectivity index, ratio of IC50 for cytotoxicity against African green monkey Vero cells to IC50 for antitrypanosomal activity against Trypanosoma cruzi IRHOD/CO/2008/SN3 (DTU I) amastigote form infected in Vero cells; format: toxicity, cell-based; conditions: read-out: Ratio IC50
[4] = Toxicity in BALB/c mouse infected with Trypanosomal Trypanosoma cruzi MHOM/Pe/2011/Arequipa(DTU V) assessed as effect on CK-MB level at 20 mg/kg, po administered for 5 days starting at 9 days post infection and measured after 2 days post treatment; format: organism-based; conditions: in vivo, 120 h, time 5 day
[5] = Toxicity in BALB/c mouse infected with Trypanosomal Trypanosoma cruzi MHOM/Pe/2011/Arequipa(DTU V) assessed as reduction in weight at 20 mg/kg, po administered for 5 days starting at 100 days post infection and measured up to 145 days post infection; format: organism-based; conditions: in vivo, 120 h, time 5 day
[6] = Toxicity in BALB/c mouse infected with Trypanosomal Trypanosoma cruzi MHOM/Pe/2011/Arequipa(DTU V) assessed as reduction in weight at 20 mg/kg, po administered for 5 days starting at 9 days post infection and measured up to 145 days post infection; format: organism-based; conditions: in vivo, 120 h, time 5 day
Trypanosoma cruzi [7] = assay: Inhibition of nucleic acid level in Trypanosoma cruzi MHOM/Pe/2011/Arequipa(DTU V) epimastigote form at IC25 concentration after 72 hrs by Rho (FITC-A) staining based flow cytometric analysis; format: functional
[8] = Toxicity in BALB/c mouse infected with Trypanosomal Trypanosoma cruzi MHOM/Pe/2011/Arequipa(DTU V) assessed as reduction in survival at 20 mg/kg, po administered for 5 days starting at 9 days post infection and measured up to 145 days post infection; format: organism-based; conditions: in vivo, 120 h, time 5 day
Trypanosoma cruzi [9] = assay: Antitrypanosomal activity against Trypanosoma cruzi IRHOD/CO/2008/SN3 (DTU I) amastigote form infected in Vero cells assessed as parasite growth inhibition incubated for 72 hrs by Giemsa-staining based assay; format: functional, organism-based
Trypanosoma cruzi [10] = assay: Antitrypanosomal activity against Trypanosoma cruzi MHOM/Pe/2011/Arequipa(DTU V) epimastigote form assessed as disruption of D-lactate level at IC25 concentration incubated for 72 hrs by NMR spectrometric analysis; format: functional, organism-based
Trypanosoma cruzi [11] = assay: Antitrypanosomal activity against Trypanosoma cruzi MHOM/Pe/2011/Arequipa(DTU V) amastigote form infected in BALB/c mouse assessed as parasite free organ tissue ratio at 20 mg/kg, po administered for 5 days starting at 9 days post infection and measured up to 145 days post infection by PCR analysis relative to control; format: functional; conditions: time 5 day
Vero = assay: Cytotoxicity against African green monkey Vero cells assessed as reduction in cell viability after 48 hrs by resazurin dye based assay; conditions: Chlorocebus sabaeus
[12] = Toxicity in BALB/c mouse infected with Trypanosomal Trypanosoma cruzi MHOM/Pe/2011/Arequipa(DTU V) assessed as effect on uric acid level at 20 mg/kg, po administered for 5 days starting at 9 days post infection and measured after 2 days post treatment; format: organism-based; conditions: in vivo, 120 h, time 5 day
[13] = Toxicity in BALB/c mouse infected with Trypanosomal Trypanosoma cruzi MHOM/Pe/2011/Arequipa(DTU V) assessed as effect on ALT/GPT level at 20 mg/kg, po administered for 5 days starting at 100 days post infection and measured after 2 days post treatment; format: organism-based; conditions: in vivo, 120 h, time 5 day
Trypanosoma cruzi [14] = assay: Antitrypanosomal activity against Trypanosoma cruzi MHOM/Pe/2011/Arequipa(DTU V) epimastigote form assessed as disruption of pyruvate level at IC25 concentration incubated for 72 hrs by NMR spectrometric analysis; format: functional, organism-based
[15] = Toxicity in BALB/c mouse infected with Trypanosomal Trypanosoma cruzi MHOM/Pe/2011/Arequipa(DTU V) assessed as effect on LDH level at 20 mg/kg, po administered for 5 days starting at 9 days post infection and measured after 2 days post treatment; format: organism-based; conditions: in vivo, 120 h, time 5 day
Trypanosoma cruzi [16] = assay: Antitrypanosomal activity against Trypanosoma cruzi MHOM/Pe/2011/Arequipa(DTU V) amastigote form infected in BALB/c mouse assessed as reduction in parasitaemia at 20 mg/kg, po for 5 days and measured after 55 days post infection; format: functional, organism-based; conditions: time 5.0 day
Trypanosoma cruzi [17] = assay: Antitrypanosomal activity against Trypanosoma cruzi MHOM/Pe/2011/Arequipa(DTU V) blood stream trypomastigote form assessed as parasite growth inhibition incubated for 24 hrs by resazurin dye based assay; format: functional, organism-based
[18] = Toxicity in BALB/c mouse infected with Trypanosomal Trypanosoma cruzi MHOM/Pe/2011/Arequipa(DTU V) assessed as effect on total bilirubin level at 20 mg/kg, po administered for 5 days starting at 9 days post infection and measured after 2 days post treatment; format: organism-based; conditions: in vivo, 120 h, time 5 day
[19] = Toxicity in BALB/c mouse infected with Trypanosomal Trypanosoma cruzi MHOM/Pe/2011/Arequipa(DTU V) assessed as effect on AST/GOT level at 20 mg/kg, po administered for 5 days starting at 9 days post infection and measured after 2 days post treatment; format: organism-based; conditions: in vivo, 120 h, time 5 day
[20] = Inhibition of Trypanosoma cruzi MHOM/Pe/2011/Arequipa(DTU V) epimastigote form Fe-SOD by UV-VIS spectrophotometric method
[21] = Toxicity in BALB/c mouse infected with Trypanosomal Trypanosoma cruzi MHOM/Pe/2011/Arequipa(DTU V) assessed as effect on CK-MB level at 20 mg/kg, po administered for 5 days starting at 100 days post infection and measured after 2 days post treatment; format: organism-based; conditions: in vivo, 120 h, time 5 day
Trypanosoma cruzi [22] = assay: Inhibition of mitochondrial membrane potential in Trypanosoma cruzi MHOM/Pe/2011/Arequipa(DTU V) epimastigote form at IC25 concentration after 72 hrs by Rho (FITC-A) staining based flow cytometric analysis; format: functional
[23] = Selectivity index, ratio of IC50 for cytotoxicity against African green monkey Vero cells to IC50 for antitrypanosomal activity against Trypanosoma cruzi MHOM/Pe/2011/Arequipa(DTU V) amastigote form infected in Vero cells; format: toxicity, cell-based; conditions: read-out: Ratio IC50
Trypanosoma cruzi [24] = assay: Antitrypanosomal activity against Trypanosoma cruzi TINF/CH/1956/Tulahuen (DTU VI) amastigote form infected in Vero cells assessed as parasite growth inhibition incubated for 72 hrs by Giemsa-staining based assay; format: functional, organism-based
Trypanosoma cruzi [25] = assay: Antitrypanosomal activity against Trypanosoma cruzi TINF/CH/1956/Tulahuen (DTU VI) blood stream trypomastigote form assessed as parasite growth inhibition incubated for 24 hrs by resazurin dye based assay; format: functional, organism-based
[26] = Selectivity index, ratio of IC50 for cytotoxicity against African green monkey Vero cells to IC50 for antitrypanosomal activity against Trypanosoma cruzi MHOM/Pe/2011/Arequipa(DTU V) epimastigote form; format: toxicity, cell-based; conditions: read-out: Ratio IC50
Trypanosoma cruzi [27] = assay: Antitrypanosomal activity against Trypanosoma cruzi MHOM/Pe/2011/Arequipa(DTU V) amastigote form infected in BALB/c mouse assessed as reduction in parasite growth at 20 mg/kg, po administered for 5 days starting at 100 days post infection and measured up to 106 days post infection by ELISA assay; format: functional, organism-based; conditions: time 5.0 day

SMILES | Activity (Trypanosoma cruzi [2]) | selectivity ratio [3] | Activity [4] | Activity [5] | Activity [6] | inhibition (Trypanosoma cruzi [7]) [%] | Activity [8] | IC50 (Trypanosoma cruzi [9]) [µM] | Activity (Trypanosoma cruzi [10]) | Activity (Trypanosoma cruzi [11]) [%] | IC50 (Vero) [µM] | Activity [12] | Activity [13] | Activity (Trypanosoma cruzi [14]) | Activity [15] | Activity (Trypanosoma cruzi [16]) | IC50 (Trypanosoma cruzi [17]) [µM] | Activity [18] | Activity [19] | IC50 [20] [µM] | also measured
CC(C)c1cc(C=O)c([C@@]2(C)CCCC(C)(C)C2=O)cc1O | Active | > 40 | Non-Toxic | Non-Toxic | Non-Toxic | 36.4 | Non-Toxic | 7.2 | inactive | 28.5 | 624 | Non-Toxic | Non-Toxic | inactive | Non-Toxic | Active | 9.9 | Non-Toxic | Non-Toxic | > 100 | Activity (Trypanosoma cruzi [1]; time 5.0 day): Active; Activity [21]: Non-Toxic; inhibition (Trypanosoma cruzi [22]): 41.8%; selectivity ratio [23]: > 40; IC50 (Trypanosoma cruzi [24]): 8.8 µM; IC50 (Trypanosoma cruzi [25]): 9.3 µM; selectivity ratio [26]: > 15
COC(=O)[C@]1(C)CCC[C@]2(C)C3=C(C=C[C@@H]12)C(=O)C(C(C)C)=CC3=O | Active | > 40 | Non-Toxic | Non-Toxic | Non-Toxic | 50.4 | Non-Toxic | 5.4 | inactive | 57.1 | 72.2 | Non-Toxic | Non-Toxic | inactive | Non-Toxic | Active | 0.7 | Non-Toxic | Non-Toxic | 6.5 | Activity (Trypanosoma cruzi [1]; time 5 day): 52%; Activity [21]: Non-Toxic; inhibition (Trypanosoma cruzi [22]): 50%; selectivity ratio [23]: > 40; IC50 (Trypanosoma cruzi [24]): 7.1 µM; IC50 (Trypanosoma cruzi [25]): 1.6 µM; selectivity ratio [26]: > 15; Activity (Trypanosoma cruzi [27]): Active
